Patent US6071903A, “2,3,4,5-tetrahydro-1H-[1,4]-benzodiazepine-3-hydroxyamic acids” (American Cyanamid Company, priority 1999, dated 2000)

Legend:
Type in all cases: biochemical
TACE = target: T1, TACE (Homo sapiens, UniProt P78536); assay: Procedure for Measuring TACE Inhibition
T1 construct: purchased Immunex
Method: Procedure for Measuring TACE Inhibition
The plates were incubated for 10 minutes at room temperature. The reaction was initiated by addition of a fluorescent peptidyl substrate (final concentration 100 μM) to each well with shaking on a shaker for 5 sec.
The reaction was read (excitation 340 nm, emission 420 nm) for 10 min. and the increase in fluorescence over time was plotted as a linear line. The slope of the line was calculated and this represents the reaction rate. […] The mean (x±sem) of the control rate was calculated and compared for statistical significance (p<0.05) with drug-treated rates using Dunnett's multiple comparison test.

MMP-1 = target: T2, MMP-1 (Homo sapiens, UniProt P03956); assay: In Vitro Collagenase Assay (MMP-1); conditions: human recombinant fibroblast collagenase
T2 construct: human recombinant fibroblast collagenase (truncated, mw=18,828)
T2 sequence (P03956 100-269 limits assumed): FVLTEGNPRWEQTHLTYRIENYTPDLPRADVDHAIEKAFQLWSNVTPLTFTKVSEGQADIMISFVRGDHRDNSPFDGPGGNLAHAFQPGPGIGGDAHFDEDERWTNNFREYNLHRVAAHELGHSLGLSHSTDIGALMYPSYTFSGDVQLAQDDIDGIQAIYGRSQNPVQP
Source text: In Vitro Collagenase Assay
This assay was based on the cleavage of a peptide substrate ((Dnp-Pro-Cha-Gly-Cys(Me)-His-Ala-Lys(NMa)-NH2), available from Peptide International, Inc.) by collagenase releasing the fluorescent NMa group which was quantitated on the fluorometer as disclosed in Bickett et al., "A High Throughput Fluorogenic Substrate for Interstitial Collagenase (MMP-1) and Gelatinase (MMP-9)", Anal. Biochem., 212:58-64, (1993). Dnp quenches the NMa fluorescence in the intact substrate.
The assay was run in HCBC assay buffer (50 mM HEPES, pH 7.0, 5 mM Ca^+2, 0.02% Brij, 0.5% Cysteine), with human recombinant fibroblast collagenase (truncated, mw=18,828. from Wyeth-Ayerst Research, Radnor, Pa.). The substrate was dissolved in methanol and stored frozen in 1 mM aliquots. Collagenase was stored frozen in buffer in 25 μM aliquots. In conducting the assay, the substrate was dissolved in HCBC buffer to a final concentration of 10 μM and collagenase to a final concentration of 5 nM. The compounds being examined were dissolved in methanol, DMSO, or HCBC. The methanol and DMSO were diluted in HCBC to <1.0%. The compounds were added to a 96 well plate containing enzyme and the reaction was started by the addition of substrate.
The reaction was read (excitation 340 nm, emission 444 nm) for 10 min. and the increase in fluorescence over time was plotted as a linear line. The slope of the line was calculated representing the reaction rate. The linearity of the reaction rate was confirmed (r^2 >0.85). The mean (x±sem) of the control rate was calculated and compared for statistical significance (p<0.05) with drug-treated rates using Dunnett's multiple comparison test.

MMP-13 = MMP-13 (Homo sapiens, UniProt P45452); assay: MMP-13 inhibition (Table 1); conditions: read-out: IC50 (nM) MMP-13
MMP-9 = MMP-9 (Homo sapiens, UniProt P14780); assay: In Vitro Gelatinase Assay (MMP-9); conditions: human neutrophil gelatinase B
Method: The enzyme activity is measured by the rate of the color increase. The thiopeptide substrate was made up fresh as a 20 mM stock in 100% DMSO and the DTNB was dissolved in 100% DMSO as a 100 mM stock and stored in the dark at room temperature. The substrate and the DTNB were diluted together to 1 mM with substrate buffer (50 mM HEPES, pH 7.5, 5 mM CaCl2) before use. […] The assay buffer, enzyme. […] The increase in OD405 was plotted and the slope of the line was calculated. The slope represents the reaction rate.

T1 sequence (P78536 215-824): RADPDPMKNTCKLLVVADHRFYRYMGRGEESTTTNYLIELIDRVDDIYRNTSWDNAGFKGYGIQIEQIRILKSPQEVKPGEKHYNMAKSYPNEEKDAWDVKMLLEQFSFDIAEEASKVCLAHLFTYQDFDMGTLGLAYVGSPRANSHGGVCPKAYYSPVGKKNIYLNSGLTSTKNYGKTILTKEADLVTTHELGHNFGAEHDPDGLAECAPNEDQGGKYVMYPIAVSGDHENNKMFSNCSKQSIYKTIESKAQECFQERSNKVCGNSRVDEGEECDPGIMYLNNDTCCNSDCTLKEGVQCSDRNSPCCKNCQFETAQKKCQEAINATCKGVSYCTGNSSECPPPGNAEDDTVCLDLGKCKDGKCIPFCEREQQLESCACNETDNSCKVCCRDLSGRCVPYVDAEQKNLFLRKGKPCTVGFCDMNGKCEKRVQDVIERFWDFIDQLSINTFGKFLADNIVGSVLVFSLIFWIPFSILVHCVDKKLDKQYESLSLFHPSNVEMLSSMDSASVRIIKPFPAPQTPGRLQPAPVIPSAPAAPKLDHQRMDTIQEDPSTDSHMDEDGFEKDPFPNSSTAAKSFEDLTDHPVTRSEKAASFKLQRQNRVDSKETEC
Chain of MMP-9 (P14780 94-707): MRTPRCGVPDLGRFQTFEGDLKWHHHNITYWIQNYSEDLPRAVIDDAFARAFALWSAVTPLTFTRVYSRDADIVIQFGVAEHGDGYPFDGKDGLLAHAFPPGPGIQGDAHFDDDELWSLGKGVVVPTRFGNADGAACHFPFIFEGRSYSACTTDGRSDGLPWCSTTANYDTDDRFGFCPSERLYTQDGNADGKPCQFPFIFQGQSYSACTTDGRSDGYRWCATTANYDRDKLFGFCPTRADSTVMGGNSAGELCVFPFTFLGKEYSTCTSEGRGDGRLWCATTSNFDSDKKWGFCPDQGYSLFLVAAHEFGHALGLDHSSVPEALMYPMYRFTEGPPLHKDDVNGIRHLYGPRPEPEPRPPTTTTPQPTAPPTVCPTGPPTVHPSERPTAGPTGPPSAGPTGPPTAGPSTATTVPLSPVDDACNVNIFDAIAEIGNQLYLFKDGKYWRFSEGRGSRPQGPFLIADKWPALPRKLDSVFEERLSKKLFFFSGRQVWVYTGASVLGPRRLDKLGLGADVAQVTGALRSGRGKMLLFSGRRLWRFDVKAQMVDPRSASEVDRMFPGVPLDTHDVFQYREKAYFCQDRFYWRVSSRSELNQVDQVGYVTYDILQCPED

IC50 (TACE) [nM] | IC50 (MMP-1) [nM] | IC50 (MMP-13) [nM] | IC50 (MMP-9) [nM] | SMILES
154 | 65.5 | 2.9 | 4.4 | COc1ccc(S(=O)(=O)N2Cc3ccccc3N(C(=O)COc3ccccc3)CC2C(=O)NO)cc1 (centres unmarked) [Example 58, 4-(4-Methoxybenzenesulfonyl)-1-(phenoxyacetyl)-2,3,4,5-tetrahydro-1H-[1,4]benzodiazepine-3-carboxylic acid, Hydroxamide]
125 ± 6 | 105 | 1.8 | 2.6 | COCC(=O)N1CC(C(=O)NO)N(S(=O)(=O)c2ccc(OC)cc2)Cc2cc(C)ccc21 (centres unmarked) [Example 59, 1-Methoxyacetyl-4-(4-methoxybenzenesulfonyl)-7-methyl-2,3-4,5-tetrahydro-1H-[1,4]benzodiazepine-3-carboxylic acid, hydroxyamine]
143 | 22.7 | 1.3 | 1.4 | COc1ccc(S(=O)(=O)N2Cc3cc(C)ccc3N(C(=O)c3ccccc3)CC2C(=O)NO)cc1 (centres unmarked) [Example 60, 1-Benzoyl-4-(4-methoxybenzenesulfonyl)-7-methyl-2,3,4,5-tetrahydro-1H[1,4]benzodianzepine-3-carboxylic acid, Hydroxyamide]
1250 ± 69 | 239 | 0.4 | 1.3 | COc1ccc(S(=O)(=O)N2Cc3ccc(Cl)cc3N(C(=O)c3ccc(OC(F)(F)F)cc3)CC2C(=O)NO)cc1 (centres unmarked) [Example 61, 4-(4-Methoxybenzenesulfonyl)-1-[4-(trifluoromethoxy)benzoyl]-8-chloro-2,3,4,5-tetrahydro-1H-[1,4]benzodiazepine-3-carboxylic acid, Hydroxyamide]
446 ± 48 | 130 | 3.1 | 5.6 | COc1ccc(S(=O)(=O)N2Cc3cc(C)ccc3N(C(=O)c3ccccc3-n3cccn3)CC2C(=O)NO)cc1 (centres unmarked) [Example 63]
384 | 157 | 3.4 | 6.1 | COc1ccc(S(=O)(=O)N2Cc3ccc(Cl)cc3N(C(=O)c3ccccc3N3CCOCC3)CC2C(=O)NO)cc1 (centres unmarked) [Example 64, 4-(4-Methoxybenzenesulfonyl)-1-[2-(4-morpholino)phenylcarbonyl}-8-chloro-2,3,4,5-tetrahydro-1H-[1,4]benzodiazepine-3-carboxylic acid, Hydroxyamide]
157 | 23.5 | 1.5 | 1.5 | CCOc1ccc(C(=O)N2CC(C(=O)NO)N(S(=O)(=O)c3ccc(OC)cc3)Cc3ccccc32)cc1 (centres unmarked) [Example 65, 1-(4-Ethoxybenzoyl)-4-(4-methoxybenzenesulfonyl)-2,3,4,5-tetrahydro-1H-[1,4]benzodiazepine-3-carboxylic acid, Hydroxyamide]
148 | 83.4 | 2.6 | 3.4 | COc1ccc(S(=O)(=O)N2Cc3ccccc3N(C(=O)c3ccc(-n4ccc(C)n4)cc3Cl)CC2C(=O)NO)cc1 (centres unmarked) [Example 66, 4-(4-Methoxybenzenesulfonyl)-1-[2-chloro-4-(3-methyl-1-pyrazolyl)phenylcarbonyl}-2,3,4,5-tetrahydro-1H-[1,4]benzodiazepine-3-carboxylic acid, Hydroxyamide]
551 ± 29 | 1320 | 73.9 | 50.8 | COc1ccc(S(=O)(=O)N2Cc3ccccc3N(Cc3ccccc3)CC2C(=O)NO)cc1 (centres unmarked) [Example 67, 1-Benzyl-4-(4-methoxybenzenesulfonyl)-2,3,4,5-tetrahydro-1H-[1,4]benzodiazepine-3-carboxylic acid, Hydroxylamide]
136 | 41.3 | 1.3 | 2.4 | COc1ccc(S(=O)(=O)N2Cc3ccccc3N(C(=O)c3ccc(OC)cc3OC)CC2C(=O)NO)cc1 (centres unmarked) [Example 71, 1-(2,4-Dimethoxybenzoyl)-4-(4-methoxybenzenesulfonyl)-2,3,4,5-tetrahydro-1H-[1,4]benzodiazepine-3-carboxylic acid, Hydroxyamide]
808 | 4980 | 317 | 187 | COc1ccc(S(=O)(=O)N2Cc3ccccc3N(C(=O)CN3CCN(C)CC3)CC2C(=O)NO)cc1 (centres unmarked) [Example 72, 4-(4-Methoxybenzenesulfonyl)-1-[2-(4-methylpiperazin-1-yl)acetyl]-2,3,4,5-tetrahydro-1H-[1,4]benzodiazepine-3-carboxylic acid, Hydroxyamide]
